In US9878992B2, “GDF-8 inhibitors” (Rigel Pharmaceuticals, Inc., priority 2012, dated 2018):

System: GDF8 signaling
Assay: AlphaScreen SureFire SMAD3 (p-Ser423/425) assay, GDF8-stimulated cells
Format: cell-based
Details: Mus musculus, MPC-11, inhibition of GDF8 signaling; pSMAD readout; MPC11; read-out: GDF pSMAD (MPC11)
Source text: [The procedure below names another cell line; the source lists this cell line under the same test.] The p-SMAD-3 (Ser423/425) SureFire® assay has been designed to measure the phosphorylation of endogenous cellular p-SMAD-3 (Ser423/425) in cell lysates and is a system for the screening of both modulators of receptor activation (e.g. agonists and antagonists) as well as agents acting intracellularly, such as small molecule inhibitors of upstream events. The assay will measure p-SMAD-3 (Ser423/425) activation by either cloned or endogenous receptors, and can be applied to primary cells.
P-SMAD-3 (Ser423/425) SureFire® Assay Protocols
Step A: Preparation of Buffers
1× Lysis buffer: 1 ml of 5× Lysis buffer was diluted with 4 ml of sterile water. After dilution, excess 1× Lysis buffer can be frozen and thawed up to 5 times without loss in activity.
Activation buffer: The buffer was warmed slowly to 37° C. and gently mixed to re-suspend. Activation buffer can be stored at room temperature with no loss in activity.
Reaction buffer: The buffer was kept at 4° C. while in use.
AlphaScreen® Protein A IgG Kit: The kit was stored at 4° C. in the dark.
Reaction buffer+Activation buffer+AlphaScreen® Acceptor beads: Reaction buffer (40 parts), Activation Buffer (10 parts) and Acceptor beads (1 part) were mixed and the mixture was stored at room temperature and used the same day. Mixture was added to 384-well plates; excess mixture was discarded.
Dilution buffer+AlphaScreen® Donor beads: Dilution buffer (20 parts) and Donor beads (1 part) were mixed and the mixture was stored at room temperature and used the same day. Excess mixture was discarded.
Assay control samples: After reconstitution in 250 μl of water, lysates were at −20° C. in single use aliquots.
Step B: Preparation of Samples and Cells
96-well Assay Protocol for 293FT and RMS13 adherent cells can be carried out manually or in high throughput with liquid handling robots.
The cells (80 μL, of cells for 96 well plates) were plated in collagen coated tissue culture plates in RPMI or FreeStyle medium (Invitrogen) and incubated overnight. For manual analysis, 6 plates for GDF8, 6 plates for TGFβ, and optionally 6 plates for Alk5ca (ALK5 constitutively active) were used.
The compound dilution plates were prepared as follows: 12 μL of DMSO was transferred into first column of 96-well plate, and 16 μL of DMSO was transferred into columns 2-12 of the 96-well plate. 12 μL of compound solution was transferred into first column of the DMSO-containing 96-well plate. Three-fold dilution was performed up to column 10 of the DMSO-containing 96-well plate.
Step C: Treatment and Analysis
The plate containing cells were treated with compounds for about 10 minutes, and then ligand was added. GDF8 or TGFb was added to plates to stimulate. 293FL cells were stimulated for 90 minutes at 37° C.; and RMS13 cells were stimulated for 60 minutes at 37° C. The medium was then removed from the cells, and 1× Lysis Buffer (about 25 μL) was added and the plate was gently agitated on plate shaker for 5-10 minutes.
The lysate (5 μL) was then placed into 384-well shallow plates avoiding the generation of bubbles. To this, the Reaction Buffer+Activation Buffer+AlphaScreen® Acceptor beads mixture (5 μL) was added. The plate was sealed with adhesive cover and shielded from light (e.g., with metal foil), and agitated gently on plate shaker for 2 hours at room temperature.
Dilution buffer+AlphaScreen® Donor beads (2 μL) was then added, and the plate was intubated on the plate shaker for an additional 1½ hours. After completion, the plate was read on Synergy-4 or Enspire plate reader, using AlphaScreen® pSMAD3® settings.

Row | IC50 [nM] | SMILES
1 | 535 | Cc1cc(-c2ncc(F)cc2-c2ccc3[nH]ncc3c2)ccc1F [Compound 10, 5-(5-Fluoro-2-(4-fluoro-3-methylphenyl)pyridin-3-yl)-1H-indazole]
2 | 2040 | Cc1cc(-c2ncccc2-c2ccc3ncccc3c2)ccc1F [Compound 207, 6-(2-(4-Fluoro-3-methylphenyl)pyridin-3-yl)quinoline]
3 | 3230 | Cc1cccc(-c2ncccc2-c2ccc3ncn(CCCON)c3c2)c1 [Compound 38]
4 | 2560 | Cc1cc(-c2ncccc2-c2ccc3ncnc(N4CCOCC4)c3c2)ccc1F [Compound 385, 4-(6-(2-(4-Fluoro-3-methylphenyl)pyridin-3-yl)quinazolin-4-yl)morpholine]
5 | 1150 | Cc1cccc(-c2ncccc2-c2ccc3ncccc3c2)c1 [Compound 208, 6-(2-m-Tolylpyridin-3-yl)quinoline]
6 | 5620 | Cc1cc(-c2ncc(CO)cc2-c2ccc3nccnc3c2)ccc1F [Compound 222, (6-(4-Fluoro-3-methylphenyl)-5-(quinoxalin-6-yl)pyridin-3-yl)methanol]
7 | 1440 | [2H]C([2H])([2H])c1cccc(-c2ncccc2-c2ccc3ncc(C(C)=O)n3c2)c1 [Compound 606, 1-(6-(2-(3-(Methyl-d3)phenyl)pyridin-3-yl)imidazo[1,2-a]pyridin-3-yl)ethan-1-one]
8 | 537 | Cc1cc(-c2ncccc2-c2ccc3ncnc(OCCN4CCOCC4)c3c2)ccc1F [Compound 425, 4-(2-((6-(2-(4-Fluoro-3-methylphenyl)pyridin-3-yl)quinazolin-4-yl)oxy)ethyl)morpholine]
9 | 968 | Cc1cc(-c2ncccc2-c2ccc3ncc(C(=O)N[C@@H]4C[C@@H]5CCCN5C(C)(C)C4)n3c2)ccc1F [Compound 744, N-((7R,8aS)-5,5-Dimethyloctahydroindolizin-7-yl)-6-(2-(4-fluoro-3-methylphenyl)pyridin-3-yl)imidazo[1,2-a]pyridine-3-carboxamide]
10 | 558 | COc1ncnc2ccc(-c3cccnc3-c3cccc(O)c3)cc12 [Compound 378, 3-(3-(4-Methoxyquinazolin-6-yl)pyridin-2-yl)phenol]
11 | 207 | Fc1ccc(Cl)cc1-c1ncccc1-c1ccc2nccn2n1 [Compound 937, 6-(2-(5-Chloro-2-fluorophenyl)pyridin-3-yl)imidazo[1,2-b]pyridazine]
12 | 2260 | COc1cc(-c2cnc3ccc(-c4cccnc4-c4ccc(F)c(C)c4)cn23)cc(OC)c1OC [Compound 577, 6-(2-(4-Fluoro-3-methylphenyl)pyridin-3-yl)-3-(3,4,5-trimethoxyphenyl)imidazo[1,2-a]pyridine]
13 | 366 | Cc1cc(-c2ncccc2-c2ccn3ncc(C(=O)N[C@@H]4C[C@@H]5CCCN5C(C)(C)C4)c3c2)ccc1F [Compound 745, N-((7R,8aS)-5,5-Dimethyloctahydroindolizin-7-yl)-5-(2-(4-difluoro-3-methylphenyl)pyridin-3-yl)pyrazolo[1,5-a]pyridine-3-carboxamide]

Row | SMILES | IC50 [nM]
14 | Cc1cc(-c2ncccc2-c2ccc3nn(COP(=O)(O)O)cc3c2)ccc1F [Compound 172, [5-(2-(4-Fluoro-3methylphenyl)pyridin-3-yl)-2H-indazol-2-yl]methyl dihydrogen phosphate] | 187

Molecular target: MAP4K4 (Homo sapiens, UniProt O95819)
Assay: MAP4K4 inhibition
Format: biochemical
Details: not given
Source text: Such compounds are particularly useful in muscle disorders, such as cachexia and sarcopenia as MAP4K4 acts as a suppressor of skeletal muscle differentiation. See, Wang M, Amano S U, Flach R J, Chawla A, Aouadi M, Czech P. Molecular and cellular biology. 2013 February; 33(4): 678-87.

Chain of MAP4K4 (O95819 whole entry, species assumed): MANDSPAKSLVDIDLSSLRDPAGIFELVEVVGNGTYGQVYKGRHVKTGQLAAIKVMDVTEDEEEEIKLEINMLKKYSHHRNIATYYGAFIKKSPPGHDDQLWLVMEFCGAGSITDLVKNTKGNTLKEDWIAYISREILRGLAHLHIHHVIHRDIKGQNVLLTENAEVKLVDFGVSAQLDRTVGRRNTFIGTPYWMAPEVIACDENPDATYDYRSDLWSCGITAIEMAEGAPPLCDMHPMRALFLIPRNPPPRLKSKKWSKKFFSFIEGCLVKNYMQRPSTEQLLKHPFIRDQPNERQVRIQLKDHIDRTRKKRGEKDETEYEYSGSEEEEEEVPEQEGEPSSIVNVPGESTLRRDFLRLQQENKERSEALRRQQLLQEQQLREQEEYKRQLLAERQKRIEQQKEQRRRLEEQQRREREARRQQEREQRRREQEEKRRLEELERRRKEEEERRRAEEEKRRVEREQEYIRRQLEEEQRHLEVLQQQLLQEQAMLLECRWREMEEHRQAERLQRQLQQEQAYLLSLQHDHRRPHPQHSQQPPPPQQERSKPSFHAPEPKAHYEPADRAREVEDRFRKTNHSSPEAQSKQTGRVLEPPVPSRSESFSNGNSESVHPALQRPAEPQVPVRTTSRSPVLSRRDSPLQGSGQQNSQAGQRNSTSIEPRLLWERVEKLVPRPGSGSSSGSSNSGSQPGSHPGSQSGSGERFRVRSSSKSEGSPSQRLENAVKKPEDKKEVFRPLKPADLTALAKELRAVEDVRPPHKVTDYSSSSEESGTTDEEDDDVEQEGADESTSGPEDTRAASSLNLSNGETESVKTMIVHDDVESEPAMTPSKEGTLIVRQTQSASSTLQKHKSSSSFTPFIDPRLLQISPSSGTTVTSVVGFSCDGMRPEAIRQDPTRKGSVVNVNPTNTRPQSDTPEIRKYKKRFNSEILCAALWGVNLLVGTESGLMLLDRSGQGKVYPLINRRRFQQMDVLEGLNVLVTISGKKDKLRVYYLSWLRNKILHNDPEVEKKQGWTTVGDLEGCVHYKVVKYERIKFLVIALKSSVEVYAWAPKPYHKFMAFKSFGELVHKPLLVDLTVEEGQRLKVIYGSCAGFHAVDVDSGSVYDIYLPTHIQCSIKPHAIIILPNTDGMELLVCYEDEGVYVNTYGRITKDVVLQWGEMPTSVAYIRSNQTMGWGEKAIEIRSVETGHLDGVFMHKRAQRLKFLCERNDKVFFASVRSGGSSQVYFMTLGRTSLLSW

Row | IC50 [nM] | SMILES
15 | < 500 | Nc1ncnc2ccc(-c3cccnc3-c3cc(O)cc(F)c3)cc12 [Compound 494, 3-(3-(4-Aminoquinazolin-6-yl)pyridin-2-yl)-5-fluorophenol]
16 | < 500 | Nc1ncnc2ccc(-c3cccnc3-c3cc(Cl)ccc3F)cc12 [Compound 818, 6-(2-(5-Chloro-2-fluorophenyl)pyridin-3-yl)quinazolin-4-amine]
17 | < 500 | Cc1cc(-c2ncccc2-c2ccc3[nH]ncc3c2)ccc1F [Compound 63, 5-(2-(4-Fluoro-3-methylphenyl)pyridin-3-yl)-1H-indazole]
18 | < 500 | Nc1ncnc2ccc(-c3cccnc3-c3cccc(O)c3)cc12 [Compound 456, 3-(3-(4-Aminoquinazolin-6-yl)pyridin-2-yl)phenol]
19 | < 500 | Nc1ncnc2ccc(-c3cccnc3-c3cc(F)cc(Cl)c3)cc12 [Compound 460, 6-(2-(3-Chloro-5-fluorophenyl)pyridin-3-yl)quinazolin-4-amine]
20 | < 500 | O=c1nc[nH]c2ccc(-c3cccnc3-c3cccc(Cl)c3)cc12 [Compound 389, 6-(2-(3-Chlorophenyl)pyridin-3-yl)quinazolin-4(1H)-one]
21 | < 500 | Nc1ncnc2ccc(-c3cccnc3-c3ccc(F)c(Cl)c3)cc12 [Compound 448, 6-(2-(3-Chloro-4-fluorophenyl)pyridin-3-yl)quinazolin-4-amine]
